Patent US20220288004A1, “TREATMENT AND PREVENTION OF AGING RELATED-DISEASE AND/OR AGING BY THE INHIBITION OF SPHINGOLIPIDS” (ECOLE POLYTECHNIQUE FEDERALE DE LAUSANNE (EPFL), priority 2019, published 2022)

How the values were obtained:
[1] = test system: quadriceps muscle of aged C57Bl/6JRj mice; assay: Quadriceps transcript profiling using RNA sequencing; assay type: in vivo, mouse; conditions: aged myriocin vs DMSO treated mice
Procedure: To identify biological pathways whose modulation could explain improved muscle function upon myriocin treatment, transcriptomes of quadriceps muscle of aged myriocin and DMSO treated mice using RNA sequencing were compared. Gene set enrichment analysis (GSEA) ranking transcripts based on their fold change were performed.
Quadriceps transcript profiling using RNA sequencing. Quadriceps muscles were collected and snap-frozen in liquid nitrogen from C57Bl/6JRj mice undergoing intraperitoneal myriocin treatment for 10 weeks on a chow diet starting at the age of 18 months. RNA was isolated using Direct-zol RNA kit (Zymo, Irvine, Calif.). RNA quality was assessed using Agilent 2100 BioAnalyzer (Agilent, Santa Clara, Calif.). Samples with RIN≥8, 28S/18S≥1.0, and c≥20 ng/μL were included in analyses. […] Sequencing libraries were prepared by BGI genomics using the DNBsea™ technology. Paired end sequencing with 100 cycles was performed using the BGISEQ-500 instrument. After removal of adaptor sequences and low quality reads, at least 56 million reads per sample was obtained. SOAPnuke was used to obtain clean reads (parameters -l 15, -q 0.2, -n 0.05). Reads were mapped using STAR aligner version 2.5.2b using the mouse GRCm38 genome assembly and the release 91 GTF annotation from Ensembl. Htseq-count version 0.6.0 was used to count the number of reads mapping to genes (mode=union, type=exon, idattr=gene_id). Transcript displaying higher expression than log 2(CPM+1)>0.5 in at least 3 samples were included in analyses. Differential gene expression analysis and expression normalization was performed using voom, ‘variance modeling at the observational level’, adjusting for sacrifice date. At individual gene level, no gene passed the multiple testing correction threshold. Benjamini-Hochberg correction for multiple testing was used. For gene set enrichment analysis using gene ontology (GO) categories, transcripts were ordered according to their log 2-transformed fold change, and 100,000 permutations were used. Adjusted p-value<0.05 was considered significant.

[2] = test system: muscle stem cells (MuSCs); assay: MuSC count in muscle of treated aged mice (FACS, PAX7 immunostaining); assay type: in vivo, mouse
Source text: Muscle stem cells (MuSCs) are capable of giving rise to mature muscle fibers, and their regenerative capacity has been reported to be impaired upon aging. […] Consistent with this, PAX7 expression correlated negatively with the first PC of the ceramide synthetic pathway in both human (FIG. 3e) and mouse (FIG. 3f) skeletal muscle. To study whether increased Pax7 transcript abundance in skeletal muscle reflects elevated MuSC count, a7 integrin/CD34 double positive cells were isolated from the hind-limbs using fluorescence-activated cell sorting (FACS).
Stem cell isolation. Gastrocnemius, soleus, and quadriceps muscles from both hindlimbs were excised and transferred into PBS on ice. […] Stained cells were analyzed and sorted using the FACSAria II instrument (BD Biosciences). […]
Histology. […] Microscopy images of fluorescence from muscle fibers were analyzed using the ImageJ software. Centralized nuclei percent, minimal Feret diameter and cross-sectional area in TA muscles were determined using the ImageJ software quantification of laminin, dystrophin, and DAPI-stained muscle images from VS120-S6-W slides scanner (Olympus). […] The mean cross-sectional area of muscle fibers was calculated as the average cross-sectional area of 2,000 fibers per from sample. 7-8 mouse samples per condition were used for histological quantification of donor mice. […] For each quantification, 3 or more mice were used.

Compound: CCCCCCC(=O)CCCCCCC=CCC(O)C(O)C(N)(CO)C(=O)O (stereo not drawn) [myriocin, 2-Amino-3,4-dihydroxy-2-(hydroxymethyl)-14-oxoicos-6-enoic acid]
- expression of Pax7 in quadriceps muscle [1]: upregulated
- most downregulated pathways (gene set enrichment analysis) ([1]; quadriceps RNA-seq): lipid metabolism and inflammation
- upregulated pathways (gene set enrichment analysis) ([1]; quadriceps RNA-seq): muscle contraction and differentiation
- Myog and Myf5 transcripts in skeletal muscle ([1]; quadriceps): upregulated
- number of PAX7+ muscle cells in TA tissue sections ([2]; aged myriocin treated mice): elevated number
- number of MuSCs in hindlimbs (a7 integrin/CD34 double positive cells, FACS) ([2]; young, aged, and aged myriocin treated mice): restored the MuSC pool of aged mice close to that of young mice
